What all share (type): in vivo, mouse
The test system of assay [1] is TREM2. In words: Immunofluorescence staining of TREM2 in brain tissues. Conditions: 5xFAD mice, CBD treated compared to untreated group; distinctively in microglial cells. The procedure: (§1) 5xFAD (expressing human APP and PSEN1 transgenes with a total of five AD-linked mutations) transgenic mice (male 9-12-month-olds) were used. These 5xFAD transgenic mice rapidly recapitulate major features of AD amyloid pathology. Mice were randomized into two experimental groups (placebo or CBD-treated; 6-10 mice/group) by a blinded investigator. A group of untreated wild-type (WT) experiments were performed in accordance with the rules and regulations of the Augusta University Institutional Animal Care and Use Committee (IACUC). In the treatment group, mice received CBD isolate (tetrahydrocannabinol-free, Canabidiol Ltd., Dublin, Ireland), 10 mg/kg intraperitoneally every other day for 8 doses over 2 weeks. Placebo-treated mice were administered along the same schedule as CBD.
(§2) Brain and blood tissues were collected and processed for histology and Immunofluorescence imaging. Briefly, brain tissues were labeled with specific, fluorescent-conjugated antibodies with fluorescent conjugation against amyloid-β, IL-33, IBA1 (for microglia), TREM2, and GFAP (Glial Fibrillary Acidic Protein for astrocytes identification). Slides were counterstained using DAPI (4′,6-diamidino-2-phenylindole) prior to examination and imaging by Zeiss Fluorescence Microscope.

Assay [2] concerns IL-33. In words: Flow cytometry of IL-33 in brain astrocytes (GFAP+ cells). Conditions: brain of 5xFAD mice, CBD 10 mg/kg intraperitoneally, 8 doses over 2 weeks; p≤0.001. On the procedure: as §1, with “Placebo-treated mice were administered along the same schedule as CBD.” left out
(§3) For flow cytometry analysis, single-cell suspension was prepared from brain, and blood by sieving the brain tissues through a […] cell strainer followed by centrifugation (252 g, 10 min). All cells were then stained with fluorescent antibodies based on routine flow cytometry staining protocol as described previously to quantify astrocytes (GFAP+cells), IL-33, myeloid cells (CD11b+), and TREM2 in the brain as well as leukocytes (CD45+) and IL-6 in the blood. IL-6 was measured as a reliable biomarker in the blood. […] Proper compensation was set to ensure the median fluorescence intensities of negative and positive cells were […] and then was used to gate the population. […]
On the technique in general: A flow cytometer gives signals particle by particle.

The test system of assay [3] is 5xFAD mice. In words: Novel Object Recognition (NOR) test in 5xFAD mice. Conditions: CBD 10 mg/kg intraperitoneally every other day, 8 doses over 2 weeks, from −0.2±0.8 in placebo, p≤0.04. The procedure:
as §1, with “Placebo-treated mice were administered along the same schedule as CBD.” left out
(§4) To assess the behavior, Open Field (OF) and Novel Object Recognition (NOR) tests were used. […] The ability of the mouse to discriminate between the familiar and novel object was quantified as a discrimination index, DI=(Tn−Tf)/(Tn+Tf), where Tn is the time spent by the mouse with the novel object, and Tf indicates the time spent with the familiar object. In OF evaluation, mice were tested in a square box (40 cm by 40 cm by 40 cm) for 10 min, and activity was digitally recorded. Distance traveled, mean velocity, and time spent in the center zone were analyzed with Ethovision XT video-tracking software (Noldus Information Technology, USA).

The test system of assay [4] is TREM2. In words: Flow cytometry of TREM2 in brain microglia (CD11b+ cells). Conditions: brain of 5xFAD mice, CBD 10 mg/kg intraperitoneally, 8 doses over 2 weeks; p≤0.0001. The procedure:
as §1, with “Placebo-treated mice were administered along the same schedule as CBD.” left out
as §3

Another assay deals with IL-6. In words: Flow cytometry of IL-6 in peripheral blood leukocytes. Conditions: whole blood of 5xFAD mice, CBD 10 mg/kg intraperitoneally, 8 doses over 2 weeks; decreased from 6.9±1.9%, p≤0.009. On the procedure: 5xFAD (expressing human APP and PSEN1 transgenes with a total of five AD-linked mutations) transgenic mice (male 9-12-month-olds) were used. These 5xFAD transgenic mice rapidly recapitulate major features of AD amyloid pathology. Mice were randomized into two experimental groups (placebo or CBD-treated; 6-10 mice/group) by a blinded investigator. A group of untreated wild-type (WT) experiments were performed in accordance with the rules and regulations of the Augusta University Institutional Animal Care and Use Committee (IACUC). […]
For flow cytometry analysis, single-cell suspension was prepared from brain, and blood by sieving the brain tissues through a […] cell strainer followed by centrifugation (252 g, 10 min). All cells were then stained with fluorescent antibodies based on routine flow cytometry staining protocol as described previously to quantify astrocytes (GFAP+cells), IL-33, myeloid cells (CD11b+), and TREM2 in the brain as well as leukocytes (CD45+) and IL-6 in the blood. IL-6 was measured as a reliable biomarker in the blood. […] Flow cytometry data were analyzed using FlowJo V10. Proper compensation was set to ensure the median fluorescence intensities of negative and positive cells were […] and then was used to gate the population. […]

The test system of assay [5] is IL-33. Nature of the assay: Immunofluorescence staining of IL-33 in brain tissues. Conditions: 5xFAD mice, CBD treated compared to untreated group; more evident in astrocytes. On the procedure: as §1, §2
For assay [6], the system named is 5xFAD mice. In words: Open Field (OF) test in 5xFAD mice. Conditions: CBD 10 mg/kg intraperitoneally every other day, 8 doses over 2 weeks, 10 min test, from 190±90 sec in placebo, p>0.05. On the procedure: as §1, with “Placebo-treated mice were administered along the same schedule as CBD.” left out
as §4

For a further assay, the system named is β-amyloid peptide. In words: Immunofluorescence staining of β-amyloid peptide in brain tissues. Particulars: 5xFAD mice, CBD 10 mg/kg intraperitoneally every other day, 8 doses over 2 weeks; hippocampus area. On the procedure:
as §1, §2

Regarding `C=C(C)[C@@H]1CCC(C)=C[C@H]1c1c(O)cc(CCCCC)cc1O` [CBD, cannabidiol], in the assay on TREM2 [1], the “TREM2 expression in brain tissues (immunofluorescence)” value was “increase in TREM2 expression”. Also, the “increase in IL-33 expression in astrocytes (GFAP+ cells), flow cytometry” value in the assay with IL-33 [2] is listed as 7 fold. Further, in the assay on 5xFAD mice [3], the “discrimination index (DI), NOR” value is recorded as 0.5±0.9. Besides, in the assay with TREM2 [4], the “increase in TREM2 expression in microglia (CD11b+ cells), flow cytometry” value is 10 fold. Further, the “IL-6 expression in peripheral leukocytes, flow cytometry” value with IL-6 is recorded as 2.1±1.4%. Also, the “IL-33 expression in brain tissues (immunofluorescence)” value with IL-33 [5] is recorded as “increase the expression of IL-33”. Further, the “Central zone stay, OF test” value with 5xFAD mice [6] turned out to be 250 ± 80 s. In addition, the “β-amyloid peptide in brain tissues (immunofluorescence)” value in the assay with β-amyloid peptide is “reduction of β-amyloid peptide”.

The record behind these values is US20240226124A9, “CANNABIDIOL FOR TREATING NEURODEGENERATIVE DISEASES” (AUGUSTA UNIVERSITY RESEARCH INSTITUTE, INC., priority 2021, published 2024).
